Our source for the GI50 and TGI values is PubChem BioAssay (NCI).

Test systems include 786-0 renal; HOP-62 NSCLC; IGROV1 ovarian; M14 melanoma; RXF 393 renal; SF-295 CNS; SNB-75 CNS; UO-31 renal.
What all share (test): inhibition of tumour cell growth, NCI panel, 48 h

Each structure is given as a SMILES string.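 48-hour exposure; five concentrations; linearly interpolated endpoints. At the GI50, growth is halved. At the TGI there is no net growth.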

In the case of `COc1ccc2c(C3(c4cn(C)c5cc(OC)ccc45)C(=O)Nc4ccc(Cl)cc43)cn(C)c2c1`, the GI50 is 4.12 µM with 786-0 renal; 4.2 µM with HOP-62 NSCLC; 2.82 µM in the experiment on IGROV1 ovarian; 4.19 µM in the experiment on M14 melanoma; 2.5 µM with RXF 393 renal; 5.16 µM in the experiment with SF-295 CNS. For the same compound, the GI50 in the experiment on SNB-75 CNS was 2.1 µM; in the experiment with UO-31 renal, 1.48 µM. The TGI with 786-0 renal was 70 µM; with HOP-62 NSCLC, > 100 µM; in the experiment on IGROV1 ovarian, > 100 µM; with M14 melanoma it was > 100 µM; with RXF 393 renal, 7.87 µM; in the experiment on SF-295 CNS it was > 100 µM. Further, the TGI with SNB-75 CNS and in the experiment with UO-31 renal was > 100 µM each time.

With `CC1=CC(=O)C(C(C)C)=CC1=Nc1cc(Br)c(O)c(Br)c1`, the GI50 is 5.03 µM in the experiment on 786-0 renal; 6.29 µM with HOP-62 NSCLC; 4.68 µM in the experiment on IGROV1 ovarian; 2.52 µM with M14 melanoma; 3.9 µM in the experiment with RXF 393 renal; 1.4 µM in the experiment with SF-295 CNS. For the same compound, the GI50 in the experiment with SNB-75 CNS is 4.22 µM; in the experiment on UO-31 renal it was 8.22 µM. Besides, the TGI was determined as 17.8 µM in the experiment on 786-0 renal; 45.2 µM with HOP-62 NSCLC; 20.2 µM in the experiment on IGROV1 ovarian; 7.52 µM with M14 melanoma; 15.3 µM with RXF 393 renal; 5.53 µM with SF-295 CNS. For the same compound, the results for the TGI in the experiment with SNB-75 CNS and in the experiment on UO-31 renal were 21.6 µM and 33.1 µM, respectively.

For the compound `Cc1ccc(C(NC(=O)c2ccccc2)c2ccc3cccnc3c2O)cc1` (stereo unspecified), the GI50 with 786-0 renal is 0.301 µM; with HOP-62 NSCLC, 0.487 µM; in the experiment on IGROV1 ovarian it was 0.352 µM; with M14 melanoma, 0.244 µM; with RXF 393 renal it was 0.252 µM; in the experiment on SF-295 CNS, 0.351 µM. Moreover, the GI50 is 0.927 µM in the experiment on SNB-75 CNS and 0.198 µM in the experiment with UO-31 renal. Besides, the TGI with 786-0 renal was 1.81 µM; in the experiment with HOP-62 NSCLC, > 41.6 µM; with IGROV1 ovarian, 4.95 µM; with M14 melanoma, 2.38 µM; in the experiment on RXF 393 renal it was 1.58 µM; in the experiment on SF-295 CNS, 14.7 µM. Further, the TGI in the experiment with SNB-75 CNS turned out to be 60 µM; in the experiment on UO-31 renal, 1.19 µM.

For the compound `Cc1cc(Nc2nc(-c3cccnc3)nc3ccccc23)n[nH]1`, the GI50 was 1.31 µM in the experiment on 786-0 renal; 2.68 µM in the experiment with HOP-62 NSCLC; 1.2 µM in the experiment on IGROV1 ovarian; 2.33 µM in the experiment with M14 melanoma; 0.388 µM with RXF 393 renal; 2.72 µM with SF-295 CNS. Besides, the GI50 in the experiment with SNB-75 CNS is 0.3 µM; with UO-31 renal it was 0.443 µM. In addition, the TGI in the experiment with 786-0 renal was > 100 µM; in the experiment with HOP-62 NSCLC it was > 89.8 µM; with IGROV1 ovarian it was > 40.6 µM; in the experiment on M14 melanoma, > 100 µM; in the experiment on RXF 393 renal, 2.52 µM; with SF-295 CNS, > 100 µM. For the same compound, the results for the TGI with SNB-75 CNS and in the experiment on UO-31 renal were 2.18 µM and > 100 µM, respectively.

Take `COC(=O)C1OC2(CCCC3CC32)O[C@H]1C(=O)OC` (stereo partly specified): the TGI with 786-0 renal, in the experiment on HOP-62 NSCLC, in the experiment on IGROV1 ovarian, in the experiment on M14 melanoma, with RXF 393 renal and with SF-295 CNS was > 100 µM each time. Moreover, the TGI in the experiment with SNB-75 CNS and with UO-31 renal was > 100 µM throughout.

Turning to `COc1ccc(/C=c2\sc3n(c2=O)C2C(NN=3)N(C)C(=O)N2C)cc1` (stereo unspecified), the GI50 in the experiment on 786-0 renal is 0.492 µM; in the experiment with HOP-62 NSCLC it was 1.29 µM; with IGROV1 ovarian, 1.32 µM; in the experiment on M14 melanoma, 0.344 µM; with RXF 393 renal it was 0.603 µM; in the experiment with SF-295 CNS, 0.917 µM. Further, the GI50 in the experiment with SNB-75 CNS was 1.17 µM; in the experiment on UO-31 renal, 1.86 µM. The TGI in the experiment with 786-0 renal is > 100 µM; in the experiment with HOP-62 NSCLC it was > 100 µM; in the experiment with IGROV1 ovarian, > 100 µM; in the experiment on M14 melanoma, 5.17 µM; in the experiment with RXF 393 renal, 2.75 µM; in the experiment on SF-295 CNS, > 24.5 µM. Besides, the TGI with SNB-75 CNS was 6.77 µM; in the experiment with UO-31 renal, > 100 µM.

Turning to `COC1=C(C)C(=O)c2c(c(CCCl)c3n2CCC3O)C1=O` (stereo unspecified), the GI50 in the experiment with 786-0 renal was 0.81 µM; in the experiment with HOP-62 NSCLC, 0.235 µM; in the experiment with IGROV1 ovarian it was 2.59 µM; with M14 melanoma it was 0.264 µM; in the experiment on RXF 393 renal, 0.226 µM; in the experiment with SF-295 CNS, 0.237 µM. In addition, the results for the GI50 in the experiment on SNB-75 CNS and in the experiment with UO-31 renal were 0.191 µM and 0.545 µM, respectively. In addition, the TGI with 786-0 renal turned out to be 6.5 µM; with HOP-62 NSCLC it was 1.83 µM; in the experiment with IGROV1 ovarian, 12.4 µM; with M14 melanoma, 1.21 µM; in the experiment with RXF 393 renal it was 0.597 µM; in the experiment with SF-295 CNS, 0.779 µM. The results for the TGI with SNB-75 CNS and in the experiment with UO-31 renal were 0.628 µM and 2.42 µM, respectively.

Turning to `CCC(c1ccc(OC)cc1)C(CC)c1ccc(O)c(CN2CCN(C)CC2)c1` (stereo unspecified), the GI50 with 786-0 renal is 3.4 µM; with HOP-62 NSCLC, 11 µM; in the experiment with IGROV1 ovarian, 5.4 µM; in the experiment with M14 melanoma, 1.99 µM; in the experiment on RXF 393 renal it was 2.83 µM; in the experiment on SF-295 CNS, 2.06 µM. Moreover, the figures for the GI50 with SNB-75 CNS and with UO-31 renal were 10 µM and 1.83 µM, respectively. The TGI with 786-0 renal turned out to be 10.9 µM; in the experiment on HOP-62 NSCLC it was 26.2 µM; in the experiment with IGROV1 ovarian it was 18 µM; in the experiment on M14 melanoma it was 3.8 µM; in the experiment with RXF 393 renal, 12.2 µM; in the experiment on SF-295 CNS it was 3.95 µM. Further, the figures for the TGI in the experiment with SNB-75 CNS and with UO-31 renal were 23 µM and 7.32 µM, respectively.

For the compound `COc1ccc(S(=O)(=O)NC2=NCCN2C(=S)SN2CCn3c2nsc3=S)cc1`, the GI50 in the experiment with 786-0 renal is 20.2 µM; with HOP-62 NSCLC, 18.9 µM; in the experiment on IGROV1 ovarian, 30.6 µM; in the experiment on M14 melanoma, 14.9 µM; with RXF 393 renal it was 4.11 µM; with SF-295 CNS, 20.8 µM. Moreover, the GI50 was 19.5 µM in the experiment on SNB-75 CNS and 1.61 µM with UO-31 renal. Besides, the TGI in the experiment on 786-0 renal was 35.4 µM; in the experiment on HOP-62 NSCLC it was 39.2 µM; in the experiment with IGROV1 ovarian it was > 100 µM; in the experiment with M14 melanoma it was 31 µM; in the experiment with RXF 393 renal it was 22.1 µM; in the experiment on SF-295 CNS it was 53.6 µM. Further, the TGI in the experiment with SNB-75 CNS was determined as 42.5 µM; with UO-31 renal, 3.41 µM.
